Reference: US10059717B2, “Urea compounds containing 3,4-dihydropyrimido[4,5-D]pyrimidin-2(1H)-one skeleton as protein kinase inhibitors” (KOREA INSTITUTE OF SCIENCE AND TECHNOLOGY, priority 2016, dated 2018)

Columns and labels:
[1] = molecular target: ACK1 (Homo sapiens, UniProt Q07912); assay: ACK1 kinase inhibitory activity; assay type: biochemical; conditions: read-out: Kinase inhibitory efficacy, GI50 ACK1
Method: (§1) GI50 values were calculated by measuring the inhibitory efficacy of the compounds of the present invention against both GCK and ACK1 kinases.

[2] = system: Ba/F3 (N-Ras G12D); assay: Proliferation inhibitory activity, Ba/F3; assay type: cell-based; conditions: Mus musculus, BaF3; Ba/F3 (N-Ras G12D) cell line; read-out: Proliferation inhibitory efficacy (GI50, μM) Ba/F3 (N-Ras G12D)
Method: (§2) GI50 values were calculated by measuring the proliferation inhibitory efficacy of the compounds of the present invention on mt-NRAS (G12D) Ba/F3, U937 (wt-NRAS) and OCI-AML3 (mt-NRAS) cell lines.

[3] = molecular target: T1, GCK (Homo sapiens, UniProt Q12851); assay: GCK kinase inhibitory activity; assay type: biochemical; conditions: read-out: Kinase inhibitory efficacy, GI50 GCK
T1 sequence (Q12851 1-820): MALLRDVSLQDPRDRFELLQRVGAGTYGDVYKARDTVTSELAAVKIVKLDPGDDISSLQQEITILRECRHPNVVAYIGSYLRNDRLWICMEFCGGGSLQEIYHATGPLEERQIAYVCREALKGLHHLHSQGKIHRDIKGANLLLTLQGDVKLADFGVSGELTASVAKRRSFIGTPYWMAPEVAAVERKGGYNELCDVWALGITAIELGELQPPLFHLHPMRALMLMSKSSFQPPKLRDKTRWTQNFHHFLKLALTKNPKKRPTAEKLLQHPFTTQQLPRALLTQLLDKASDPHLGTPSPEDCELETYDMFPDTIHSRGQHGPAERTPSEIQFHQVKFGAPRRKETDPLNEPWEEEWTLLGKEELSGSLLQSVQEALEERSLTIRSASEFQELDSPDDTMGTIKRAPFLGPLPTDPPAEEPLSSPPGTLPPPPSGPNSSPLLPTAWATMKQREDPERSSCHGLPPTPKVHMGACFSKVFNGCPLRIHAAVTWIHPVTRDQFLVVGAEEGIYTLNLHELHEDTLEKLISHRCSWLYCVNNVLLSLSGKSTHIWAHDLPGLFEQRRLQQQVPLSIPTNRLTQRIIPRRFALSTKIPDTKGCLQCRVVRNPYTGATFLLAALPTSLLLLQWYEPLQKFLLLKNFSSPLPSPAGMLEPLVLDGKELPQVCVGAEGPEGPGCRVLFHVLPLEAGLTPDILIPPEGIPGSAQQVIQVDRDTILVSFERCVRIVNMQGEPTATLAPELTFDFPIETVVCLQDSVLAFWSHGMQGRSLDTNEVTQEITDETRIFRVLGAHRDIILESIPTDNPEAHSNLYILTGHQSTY
Method: as §1

[4] = system: OCI-AML3 (N-Ras Q61L); assay: Proliferation inhibitory activity, OCI-AML3; assay type: cell-based; conditions: Homo sapiens, OCI-AML-3; OCI-AML3 (N-Ras Q61L) cell line; read-out: Proliferation inhibitory efficacy (GI50, μM) OCI-AML3 (N-Ras Q61L)
Method: as §2
Accordingly, the compounds of the present invention are particularly effective as a therapeutic agent for acute myelogenous leukemia (AML).

[5] = system: U937 (N-Ras WT); assay: Proliferation inhibitory activity, U937; assay type: cell-based; conditions: Homo sapiens, U-937; U937 (N-Ras WT) cell line; read-out: Proliferation inhibitory efficacy (GI50, μM) U937 (N-Ras WT)
Method: as §2

Sequence of ACK1 (Q07912 whole entry): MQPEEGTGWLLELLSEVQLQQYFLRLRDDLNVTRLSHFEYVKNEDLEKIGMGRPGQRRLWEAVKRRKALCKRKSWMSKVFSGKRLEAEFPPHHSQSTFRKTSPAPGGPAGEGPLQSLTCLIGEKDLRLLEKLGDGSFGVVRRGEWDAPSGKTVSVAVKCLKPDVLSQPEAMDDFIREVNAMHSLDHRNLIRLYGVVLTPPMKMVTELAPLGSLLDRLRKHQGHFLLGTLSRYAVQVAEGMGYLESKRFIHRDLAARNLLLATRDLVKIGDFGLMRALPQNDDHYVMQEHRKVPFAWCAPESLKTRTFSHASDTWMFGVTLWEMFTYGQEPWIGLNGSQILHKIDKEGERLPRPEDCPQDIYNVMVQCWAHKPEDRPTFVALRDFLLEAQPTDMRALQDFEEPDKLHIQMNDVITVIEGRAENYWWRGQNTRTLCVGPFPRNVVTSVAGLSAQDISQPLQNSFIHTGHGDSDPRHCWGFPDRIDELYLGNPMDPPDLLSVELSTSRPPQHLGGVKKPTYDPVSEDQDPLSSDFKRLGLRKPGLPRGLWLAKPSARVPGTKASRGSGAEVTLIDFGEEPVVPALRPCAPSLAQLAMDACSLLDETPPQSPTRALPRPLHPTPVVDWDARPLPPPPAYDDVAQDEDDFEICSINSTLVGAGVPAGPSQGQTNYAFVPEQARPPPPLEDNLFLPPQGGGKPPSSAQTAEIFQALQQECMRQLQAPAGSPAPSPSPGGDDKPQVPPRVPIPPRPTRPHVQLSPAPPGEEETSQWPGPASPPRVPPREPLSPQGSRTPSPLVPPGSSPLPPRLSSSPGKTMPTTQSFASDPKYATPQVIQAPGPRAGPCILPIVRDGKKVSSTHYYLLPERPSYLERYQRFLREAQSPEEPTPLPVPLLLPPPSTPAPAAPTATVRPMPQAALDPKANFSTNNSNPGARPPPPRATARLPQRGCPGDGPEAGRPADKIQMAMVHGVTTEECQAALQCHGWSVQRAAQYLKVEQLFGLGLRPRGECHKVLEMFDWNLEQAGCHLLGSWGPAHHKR

| Structure (SMILES) | GI50 [1] [nM] | GI50 [2] [µM] | GI50 [3] [nM] | GI50 [4] [µM] | GI50 [5] [µM] |
| --- | --- | --- | --- | --- | --- |
| CNC(=O)c1ccc(Nc2ncc3c(n2)N(C)C(=O)N(c2cc(NC(=O)Nc4ccccc4OC)ccc2C)C3)cn1 [Compound No. 15] | < 30 | < 0.5 | 100 to 300 | < 0.5 | ≥ 5 |
| Cc1ccc(Nc2ncc3c(n2)N(C)C(=O)N(c2cc(NC(=O)Nc4ccc(Cl)c(C(F)(F)F)c4)ccc2C)C3)cn1 [Compound No. 9, 1-(4-chloro-3-(trifluoromethyl)phenyl)-3-(4-methyl-3-(1-methyl-7-((6-methylpyridin-3-yl)amino)-2-oxo-1,4-dihydropyrimido[4,5-d]pyrimidin-3(2H)-yl)phenyl)urea] | 30 to 100 | 0.5 to 3 | 100 to 300 | < 0.5 | ≥ 5 |
| Cc1ccc(Nc2ncc3c(n2)N(C)C(=O)N(c2cc(NC(=O)Nc4ccccc4C(F)(F)F)ccc2C)C3)cn1 [Compound No. 4, 1-(4-methyl-3-(1-methyl-7-((6-methylpyridin-3-yl)amino)-2-oxo-1,4-dihydropyrimido[4,5-d]pyrimidin-3(2H)-yl)phenyl)-3-(2-(trifluoromethyl)phenyl)urea] | < 30 | 0.5 to 3 | ≥ 300 | < 0.5 | ≥ 5 |
| Cc1ccc(Nc2ncc3c(n2)N(C)C(=O)N(c2cc(NC(=O)Nc4ccccc4)ccc2C)C3)cn1 [Compound No. 2, 1-(4-methyl-3-(1-methyl-7-((6-methylpyridin-3-yl)amino)-2-oxo-1,4-dihydropyrimido[4,5-d]pyrimidin-3(2H)-yl)phenyl)-3-phenylurea] | < 30 | 0.5 to 3 | 100 to 300 | 0.5 to 3 | ≥ 5 |
| Cc1ccc(Nc2ncc3c(n2)N(C)C(=O)N(c2cc(NC(=O)Nc4cccc(Cl)c4Cl)ccc2C)C3)cn1 [Compound No. 6, 1-(2,3-dichlorophenyl)-3-(4-methyl-3-(1-methyl-7-((6-methylpyridin-3-yl)amino)-2-oxo-1,4-dihydropyrimido[4,5-d]pyrimidin-3(2H)-yl)phenyl)urea] | < 30 | 0.5 to 3 | 100 to 300 | < 0.5 | ≥ 5 |
| COc1ccccc1NC(=O)Nc1ccc(C)c(N2Cc3cnc(Nc4ccc(C)nc4)nc3N(C)C2=O)c1 [Compound No. 1, 1-(2-methoxyphenyl)-3-(4-methyl-3-(1-methyl-7-((6-methylpyridin-3-yl)amino)-2-oxo-1,4-dihydropyrimido[4,5-d]pyrimidin-3(2H)-yl)phenyl)urea] | < 30 | < 0.5 | 30 to 100 | < 0.5 | ≥ 5 |
| Cc1ccc(Nc2ncc3c(n2)N(C)C(=O)N(c2cc(NC(=O)Nc4ccccc4C)ccc2C)C3)cn1 [Compound No. 5, 1-(4-methyl-3-(1-methyl-7-((6-methylpyridin-3-yl)amino)-2-oxo-1,4-dihydropyrimido[4,5-d]pyrimidin-3(2H)-yl)phenyl)-3-(o-tolyl)urea] | < 30 | 0.5 to 3 | 100 to 300 | 0.5 to 3 | ≥ 5 |
| COc1cccc(NC(=O)Nc2ccc(C)c(N3Cc4cnc(Nc5ccc(C)nc5)nc4N(C)C3=O)c2)c1 [Compound No. 8, 1-(3-methoxyphenyl)-3-(4-methyl-3-(1-methyl-7-((6-methylpyridin-3-yl)amino)-2-oxo-1,4-dihydropyrimido[4,5-d]pyrimidin-3(2H)-yl)phenyl)urea] | < 30 | < 0.5 | 30 to 100 | 0.5 to 3 | ≥ 5 |
| COc1ccccc1NC(=O)Nc1ccc(C)c(N2Cc3cnc(Nc4ccc(C(=O)NC5CC5)nc4)nc3N(C)C2=O)c1 [Compound No. 16, N-cyclopropyl-5-((6-(5-(3-(2-methoxyphenyl)ureido)-2-methylphenyl)-8-methyl-7-oxo-5,6,7,8-tetrahydropyrimido[4,5-d]pyrimidin-2-yl)amino)picolinamide] | < 30 | < 0.5 | 100 to 300 | < 0.5 | ≥ 5 |
| Cc1ccc(Nc2ncc3c(n2)N(C)C(=O)N(c2cc(NC(=O)Nc4ccccc4OC(F)(F)F)ccc2C)C3)cn1 [Compound No. 3, 1-(4-methyl-3-(1-methyl-7-((6-methylpyridin-3-yl)amino)-2-oxo-1,4-dihydropyrimido[4,5-d]pyrimidin-3(2H)-yl)phenyl)-3-(2-(trifluoromethoxy)phenyl)urea] | < 30 | 3 to 5 | ≥ 300 | 0.5 to 3 | ≥ 5 |
| CCN1CCN(c2ccc(Nc3ncc4c(n3)N(C)C(=O)N(c3cc(NC(=O)Nc5ccccc5OC)ccc3C)C4)cn2)CC1 [Compound No. 17, 1-(3-(7-((6-(4-ethylpiperazin-1-yl)pyridin-3-yl)amino)-1-methyl-2-oxo-1,4-dihydropyrimido[4,5-d]pyrimidin-3(2H)-yl)-4-methylphenyl)-3-(2-methoxyphenyl)urea] | < 30 | < 0.5 | < 30 | < 0.5 | 0.5 to 3 |
| COc1ccc(NC(=O)Nc2ccc(C)c(N3Cc4cnc(Nc5ccc(C)nc5)nc4N(C)C3=O)c2)cc1 [Compound No. 10, 1-(4-methoxyphenyl)-3-(4-methyl-3-(1-methyl-7-((6-methylpyridin-3-yl)amino)-2-oxo-1,4-dihydropyrimido[4,5-d]pyrimidin-3(2H)-yl)phenyl)urea] | 30 to 100 | < 0.5 | 30 to 100 | < 0.5 | ≥ 5 |
| COc1ccccc1NC(=O)Nc1ccc(C)c(N2Cc3cnc(Nc4cnn(C)c4)nc3N(C)C2=O)c1 [Compound No. 12, 1-(2-methoxyphenyl)-3-(4-methyl-3-(1-methyl-7-((1-methy-1H-pyrazol-4-yl)amino)-2-oxo-1,4-dihydropyrimido[4,5-d]pyrimidin-3(2H)-yl)phenyl)urea] | < 30 | < 0.5 | < 30 | < 0.5 | ≥ 5 |
| COc1ccccc1NC(=O)Nc1ccc(C)c(N2Cc3cnc(Nc4ccc(N5CCN(C(C)=O)CC5)nc4)nc3N(C)C2=O)c1 [Compound No. 13, 1-(3-(7-((6-(4-acetylpiperazin-1-yl)pyridin-3-yl)amino)-1-methyl-2-oxo-1,4-dihydropyrimido[4,5-d]pyrimidin-3(2H)-yl)-4-methylphenyl)-3-(2-methoxyphenyl)urea] | < 30 | < 0.5 | < 30 | < 0.5 | ≥ 5 |
| Cc1ccc(Nc2ncc3c(n2)N(C)C(=O)N(c2cc(NC(=O)Nc4cccc(C(F)(F)F)c4)ccc2C)C3)cn1 [Compound No. 7, 1-(4-methyl-3-(1-methyl-7-((6-methylpyridin-3-yl)amino)-2-oxo-1,4-dihydropyrimido[4,5-d]pyrimidin-3(2H)-yl)phenyl)-3-(3-(trifluoromethyl)phenyl)urea] | < 30 | < 0.5 | 100 to 300 | 0.5 to 3 | ≥ 5 |
| CCN1CCN(c2ccc(Nc3ncc4c(n3)N(C)C(=O)N(c3cc(NC(=O)Nc5ccccc5OC)ccc3C)C4)cc2)CC1 [Compound No. 11, 1-(3-(7-((4-(4-ethylpiperazin-1-yl)phenyl)amino)-1-methyl-2-oxo-1,4-dihydropyrimido[4,5-d]pyrimidin-3(2H)-yl)-4-methylphenyl)-3-(2-methoxyphenyl)urea] | < 30 | < 0.5 | < 30 | < 0.5 | 0.5 to 3 |
| COc1ccccc1NC(=O)Nc1ccc(C)c(N2Cc3cnc(Nc4ccc(N5CCC(C(N)=O)CC5)nc4)nc3N(C)C2=O)c1 [Compound No. 18, 1-(5-((6-(5-(3-(2-methoxyphenyl)ureido)-2-methylphenyl)-8-methyl-7-oxo-5,6,7,8-tetrahydropyrimido[4,5-d]pyrimidin-2-yl)amino)pyridin-2-yl)piperidin-4-carboxamide] | 30 to 100 | < 0.5 | < 30 | < 0.5 | ≥ 5 |
